pIC50: −log10 of the molar value. Where two headings read alike, the source gives them in different places.
What was measured:
Format in all cases: biochemical
Human PDE4A3 = Human PDE4A3 (Homo sapiens (Human), UniProt P27815); assay: PDE4A3 Scintillation Proximity Assay (SPA), inhibition of enzyme activity; conditions: read-out: Human PDE4A FL
How it was run: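 Recombinant human PDE4A3 expressed in insect cells, purified via Ni-NTA, anti-FLAG and size exclusion. SPA run 30 min at 25 °C in 50 mM Tris pH 7.5, 1.3 mM MgCl2, 0.01% Brij with 1 μM cAMP (20 nM 3H-cAMP), […], ~20% substrate conversion; stopped with yttrium silicate beads.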

Human PDE4B1 = Human PDE4B1 (Homo sapiens (Human), UniProt Q07343, S133E/S654A/S659A/S661A); assay: PDE4B1 Scintillation Proximity Assay (SPA), inhibition of enzyme activity; conditions: read-out: Human PDE4B FL
How it was run: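 His-tagged enzyme from baculovirus-infected insect cells, Ni-NTA purified. SPA with 1 μM cAMP (20 nM 3H-cAMP tracer) in 50 mM Tris pH 7.5, 1.3 mM MgCl2, 0.01% Brij, […] PDE4B enzyme for ~20% substrate conversion; 30 min at 25 °C, stopped with yttrium silicate beads, read after 8 h settling.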

Human PDE4C1 = Human PDE4C1 (Homo sapiens (Human), UniProt Q08493); assay: PDE4C1 Scintillation Proximity Assay (SPA), inhibition of enzyme activity; conditions: read-out: Human PDE4C FL
How it was run: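 Recombinant insect-cell-expressed human PDE4C1 […] in 50 mM Tris pH 7.5, 1.3 mM MgCl2, 0.01% Brij with 1 μM cAMP (3H-cAMP tracer), ~20% substrate conversion, inhibitor concentration range. Incubated 30 min at 25° C; stopped with yttrium silicate SPA beads, read by scintillation after 8 h settling.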

human PDE4D3 = human PDE4D3 (Homo sapiens (Human), UniProt Q08499); assay: PDE4D3 Scintillation Proximity Assay (SPA), inhibition of enzyme activity; conditions: read-out: Human PDE4D FL
How it was run: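 His-tagged human PDE4D3 (aa 50–672), expressed in insect cells, hydrolysed 1 μM cAMP (3H tracer plus cold) for 30 min at 25° C in 50 mM Tris pH 7.5, 1.3 mM MgCl2 and 0.01% Brij. Enzyme level was set for ~20% conversion. Product was read by yttrium silicate SPA beads after 8 h settling.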

[1] = Table 9, geometric mean of 2-9 determinations unless otherwise indicated
[2] = Table 10, geometric mean of 2-9 determinations unless otherwise indicated

Chain of Human PDE4C1 (Q08493 2-712): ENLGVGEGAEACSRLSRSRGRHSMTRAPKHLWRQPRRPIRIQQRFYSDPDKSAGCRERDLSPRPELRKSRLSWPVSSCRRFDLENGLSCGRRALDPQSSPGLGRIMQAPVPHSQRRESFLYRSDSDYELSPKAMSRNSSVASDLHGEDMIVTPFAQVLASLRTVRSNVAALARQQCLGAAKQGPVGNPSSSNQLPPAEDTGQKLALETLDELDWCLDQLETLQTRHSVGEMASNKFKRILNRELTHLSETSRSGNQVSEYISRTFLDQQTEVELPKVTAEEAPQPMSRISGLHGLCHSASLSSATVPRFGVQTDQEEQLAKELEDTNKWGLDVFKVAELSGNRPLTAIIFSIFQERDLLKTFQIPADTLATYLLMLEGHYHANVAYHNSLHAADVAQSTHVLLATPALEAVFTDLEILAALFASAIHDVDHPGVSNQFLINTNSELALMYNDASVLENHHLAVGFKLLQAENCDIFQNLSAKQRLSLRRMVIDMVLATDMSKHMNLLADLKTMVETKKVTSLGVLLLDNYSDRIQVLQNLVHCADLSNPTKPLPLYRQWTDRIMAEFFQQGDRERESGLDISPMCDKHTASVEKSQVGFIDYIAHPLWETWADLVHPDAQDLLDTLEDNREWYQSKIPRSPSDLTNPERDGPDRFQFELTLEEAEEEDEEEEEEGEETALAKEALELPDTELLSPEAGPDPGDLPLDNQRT
Chain of Human PDE4A3 (P27815 other isoform, or with tags, fused parts or gaps): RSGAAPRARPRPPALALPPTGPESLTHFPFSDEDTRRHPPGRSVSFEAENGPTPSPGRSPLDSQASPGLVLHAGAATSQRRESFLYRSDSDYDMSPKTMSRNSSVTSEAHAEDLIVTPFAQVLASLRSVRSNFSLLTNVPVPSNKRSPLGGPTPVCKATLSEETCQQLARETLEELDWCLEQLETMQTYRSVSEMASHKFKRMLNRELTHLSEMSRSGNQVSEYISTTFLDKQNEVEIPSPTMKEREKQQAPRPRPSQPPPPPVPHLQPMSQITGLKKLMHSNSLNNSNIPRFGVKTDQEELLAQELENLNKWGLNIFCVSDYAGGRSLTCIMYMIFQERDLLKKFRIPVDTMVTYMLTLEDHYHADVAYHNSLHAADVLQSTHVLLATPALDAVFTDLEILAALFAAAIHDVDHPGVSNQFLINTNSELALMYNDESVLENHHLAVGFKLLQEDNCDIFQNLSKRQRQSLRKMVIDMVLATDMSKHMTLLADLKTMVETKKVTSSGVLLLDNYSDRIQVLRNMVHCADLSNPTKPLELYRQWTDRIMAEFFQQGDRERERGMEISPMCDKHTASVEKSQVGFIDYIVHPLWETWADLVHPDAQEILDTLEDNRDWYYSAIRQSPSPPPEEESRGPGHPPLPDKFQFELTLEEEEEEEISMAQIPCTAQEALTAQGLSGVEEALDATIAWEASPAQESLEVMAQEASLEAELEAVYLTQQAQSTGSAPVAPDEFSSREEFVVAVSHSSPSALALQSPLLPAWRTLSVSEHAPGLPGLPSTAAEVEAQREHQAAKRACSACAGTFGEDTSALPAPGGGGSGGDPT
Chain of human PDE4D3 (Q08499 186-808): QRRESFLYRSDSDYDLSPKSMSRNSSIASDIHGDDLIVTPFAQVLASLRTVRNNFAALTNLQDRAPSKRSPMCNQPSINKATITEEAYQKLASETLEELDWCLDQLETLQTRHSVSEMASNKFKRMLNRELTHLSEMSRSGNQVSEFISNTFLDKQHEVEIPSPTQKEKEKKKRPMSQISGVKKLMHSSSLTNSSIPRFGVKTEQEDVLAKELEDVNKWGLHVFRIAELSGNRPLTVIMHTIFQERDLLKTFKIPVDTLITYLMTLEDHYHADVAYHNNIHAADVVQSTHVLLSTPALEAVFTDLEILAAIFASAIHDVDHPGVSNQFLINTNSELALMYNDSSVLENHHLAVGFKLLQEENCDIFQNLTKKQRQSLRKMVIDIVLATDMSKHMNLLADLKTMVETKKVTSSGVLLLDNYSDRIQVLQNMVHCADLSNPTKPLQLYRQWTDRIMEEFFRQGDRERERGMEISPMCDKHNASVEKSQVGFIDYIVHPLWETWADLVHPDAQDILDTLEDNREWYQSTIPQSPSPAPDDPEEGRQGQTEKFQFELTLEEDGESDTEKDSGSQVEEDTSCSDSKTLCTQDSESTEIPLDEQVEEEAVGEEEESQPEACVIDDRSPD
Chain of Human PDE4B1 (Q07343 122-736 S133E/S654A/S659A/S661A): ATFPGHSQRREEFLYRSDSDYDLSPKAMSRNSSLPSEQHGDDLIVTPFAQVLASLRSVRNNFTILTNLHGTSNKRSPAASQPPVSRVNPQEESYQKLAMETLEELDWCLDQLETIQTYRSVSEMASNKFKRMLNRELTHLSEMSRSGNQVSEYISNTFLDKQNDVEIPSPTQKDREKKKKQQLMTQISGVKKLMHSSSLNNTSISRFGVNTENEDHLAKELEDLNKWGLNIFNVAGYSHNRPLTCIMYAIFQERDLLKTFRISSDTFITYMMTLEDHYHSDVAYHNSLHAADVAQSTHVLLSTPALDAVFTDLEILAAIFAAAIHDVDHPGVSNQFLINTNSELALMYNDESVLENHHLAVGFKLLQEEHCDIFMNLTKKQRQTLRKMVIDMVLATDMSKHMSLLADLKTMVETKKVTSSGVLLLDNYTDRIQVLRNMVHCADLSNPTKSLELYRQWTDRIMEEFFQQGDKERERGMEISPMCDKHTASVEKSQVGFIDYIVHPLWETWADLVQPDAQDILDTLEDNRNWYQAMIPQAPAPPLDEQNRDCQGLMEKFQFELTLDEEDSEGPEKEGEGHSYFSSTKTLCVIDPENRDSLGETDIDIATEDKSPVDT

Structure (SMILES) | pIC50 (Human PDE4A3; [1]) | pIC50 (Human PDE4B1; [1]) | pIC50 (Human PDE4C1; [1]) | pIC50 (human PDE4D3; [1]) | pIC50 (Human PDE4A3; [2]) | pIC50 (Human PDE4B1; [2]) | pIC50 (Human PDE4C1; [2]) | pIC50 (human PDE4D3; [2])
O=C1c2c(-c3ccc(Cl)c(F)c3)c3ncncc3n2CCN1C1CC1 [Example 7, 10-(4-Chloro-3-fluorophenyl)-8-cyclopropyl-7,8-dihydropyrazino[1′,2′: 1,5]pyrrolo[3,2-d]pyrimidin-9(6H)-one] | 7.84 | 8.60 | 7.15 | 6.80 | – | – | – | –
Cc1cc(N2CCn3c(c(-c4ccc(Cl)cc4)c4ncccc43)C2=O)no1 [Example 57, 10-(4-Chlorophenyl)-8-(5-methyl-1,2-oxazol-3-yl)-7,8-dihydropyrido[2′,3′:4,5]pyrrolo[1,2-a]pyrazin-9(6H)-one] | 8.46 | 8.42 | 7.97 | 7.42 | – | – | – | –
Cc1cc(Cl)ccc1-c1c2n(c3cccnc13)CCN(c1ncccn1)C2=O [Example 73, 10-(4-Chloro-2-methylphenyl)-8-(pyrimidin-2-yl)-7,8-dihydropyrido[2′,3′:4,5]pyrrolo[1,2-a]pyrazin-9(6H)-one] | 8.12 | 7.60 | 6.91 | 6.15 | – | – | – | –
O=C1c2c(-c3ccc(Cl)cc3)c3ncccc3n2CC2CCN12 (single isomer, unassigned) [Example 69] | 8.05 | 7.79 | 7.61 | 6.16 | – | – | – | –
Cc1csc(-c2c3n(c4cccnc24)CCN(C2CC2)C3=O)n1 [Example 82, 8-Cyclopropyl-10-(4-methylthiazol-2-yl)-7,8-dihydropyrido[2′,3′:4,5]pyrrolo[1,2-a]pyrazin-9(6H)-one] | – | – | – | – | 4.95 | 4.73 | 5.32 | < 4.52
O=C1c2c(-c3ccc(Cl)cc3)c3ccccc3n2CCN1C1CC1 [Example 12, 10-(4-Chlorophenyl)-2-cyclopropyl-3,4-dihydropyrazino[1,2-a]indol-1(2H)-one] | 7.92 | 7.72 | 7.63 | 5.51 | – | – | – | –
Cc1cc(C#N)c(F)cc1-c1c2c(n3c1C(=O)N(C1CC1)CC3)CCCO2 [Example 16, 4-(8-Cyclopropyl-9-oxo-3,4,6,7,8,9-hexahydro-2H-pyrano[2′,3′:4,5]pyrrolo[1,2-a]pyrazin-10-yl)-2-fluoro-5-methylbenzonitrile] | 8.80 | 8.75 | 7.82 | 7.34 | – | – | – | –
Cc1ccc(-c2c3n(c4cccnc24)CCN(C2CC2)C3=O)c(C)c1 [Example 65, 8-Cyclopropyl-10-(2,4-dimethylphenyl)-7,8-dihydropyrido[2′,3′:4,5]pyrrolo[1,2-a]pyrazin-9(6H)-one] | 8.25 | 8.17 | 7.86 | 6.32 | – | – | – | –
Cc1ccc(-c2c3ncccc3n3ccn(C4CC4)c(=O)c23)cc1 [Example 13, 8-Cyclopropyl-10-(4-methylphenyl)pyrido[2′,3′:4,5]pyrrolo[1,2-a]pyrazin-9(8H)-one] | 8.73 | 8.57 | 8.18 | 6.74 | – | – | – | –
O=C1c2c(-c3ccc(Cl)cc3)c3c(n2CCN1C1CC1)CCCO3 [Example 75, 10-(4-Chlorophenyl)-8-cyclopropyl-3,4,7,8-tetrahydro-2H-pyrano[2′,3′:4,5]pyrrolo[1,2-a]pyrazin-9(6H)-one] | 8.90 | 8.40 | 7.93 | 6.54 | – | – | – | –
N#Cc1ccc(-c2c3ncccc3n3ccn(C4CC4)c(=O)c23)cc1 [Example 70, 4-(8-Cyclopropyl-9-oxo-8,9-dihydropyrido[2′,3′:4,5]pyrrolo[1,2-a]pyrazin-10-yl)benzonitrile] | 8.55 | 8.57 | 8.07 | 6.97 | – | – | – | –
O=C1c2c(-c3ccc(Cl)cc3)c3ncccc3n2CCN1C1CC1 [Example 2, 10-(4-Chlorophenyl)-8-cyclopropyl-7,8-dihydropyrido[2′,3′:4,5]pyrrolo[1,2-a]pyrazin-9(6H)-one] | > 9.00 | > 9.38 | 8.40 | 7.12 | – | – | – | –

Reference: patent publication US11472805B2, “Tricyclic compounds and their use as phosphodiesterase inhibitors” (Pfizer Inc., priority 2015, dated 2022)
